Experimental data from ChEMBL document CHEMBL1143305, “SAR and biological evaluation of analogues of a small molecule histone deacetylase inhibitor N-(2-aminophenyl)-4-((4-(pyridin-3-yl)pyrimidin-2-ylamino)methyl)benzamide (MGCD0103)” (Bioorg Med Chem Lett, 2009).
Active and inactive are the calls of the source. No cut-off for these calls is given here.

Assays:
Histone deacetylase 1 = Histone deacetylase 1 (Homo sapiens, UniProt Q13547); assay: Inhibition of human recombinant HDAC1
HMEC [1] = assay: Antiproliferative activity against HMEC by MTT assay; type: cell-based; settings: Homo sapiens
T-24 = assay: Induction of histone H4 hyperacetylation in human T24 cells after 16 hrs by immunoblotting; type: functional, cell-based; settings: for EC50: T-24, 16 h
HCT-116 [2] = assay: Induction of p21WAF1/CIP1 expression in human HCT116 cells assessed as […] after 16 hrs by luciferase assay; type: functional, cell-based; settings: for EC50: HCT-116, 16 h
HCT-116 [3] = assay: cells; settings: Homo sapiens
Description: (§1) Antiproliferative activity against human HCT116 cells by MTT assay

HMEC [4] = assay: Selectivity ratio of IC50 for HMEC to IC50 for human HCT116 cells
HCT-116 [5] = assay: Induction of apoptosis in human HCT116 cells; type: functional, cell-based
HCT-116 [6] = settings: Homo sapiens
Description: as §1

Chain of Histone deacetylase 1 (Q13547 whole entry): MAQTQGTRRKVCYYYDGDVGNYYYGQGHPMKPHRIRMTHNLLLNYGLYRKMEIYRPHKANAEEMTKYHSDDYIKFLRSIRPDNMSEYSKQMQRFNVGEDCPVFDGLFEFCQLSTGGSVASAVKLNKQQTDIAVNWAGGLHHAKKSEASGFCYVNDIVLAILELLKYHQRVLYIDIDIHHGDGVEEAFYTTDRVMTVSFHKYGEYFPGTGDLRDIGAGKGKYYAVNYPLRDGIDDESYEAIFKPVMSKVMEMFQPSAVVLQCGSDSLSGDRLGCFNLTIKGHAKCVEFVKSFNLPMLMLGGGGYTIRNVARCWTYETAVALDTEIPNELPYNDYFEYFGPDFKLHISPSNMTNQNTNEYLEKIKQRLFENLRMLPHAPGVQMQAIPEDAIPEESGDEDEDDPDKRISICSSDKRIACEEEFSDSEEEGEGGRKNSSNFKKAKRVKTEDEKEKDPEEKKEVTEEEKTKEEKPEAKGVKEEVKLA

SMILES | IC50 (Histone deacetylase 1) | EC50 (T-24) | EC50 (HCT-116 [2]) | IC50 (HCT-116 [3]) | IC50 (HMEC [1]) | Ratio IC50 (HMEC [4]) | Activity (HCT-116 [5]) | Activity (HCT-116 [2]) | Activity (T-24) | Activity (HCT-116 [6])
CSc1nc(NCc2ccc(C(=O)Nc3ccccc3N)cc2)cc(-c2cccnc2)n1 | 250 nM | 1000 nM | 600 nM | 100 nM | 13000 nM | – | – | – | – | –
Nc1ccccc1NC(=O)c1ccc(CNc2nccc(-c3ccc(OCCN4CCOCC4)cc3)n2)cc1 | 80 nM | < 1000 nM | 100 nM | 100 nM | 8000 nM | >30 | – | – | – | –
Nc1ccccc1NC(=O)c1ccc(CNc2nccc(-c3cc(CO)no3)n2)cc1 | 210 nM | 1000 nM | – | 800 nM | > 50000 nM | >30 | – | inactive | – | –
CN(C)C(=O)c1ccc(-c2ccnc(NCc3ccc(C(=O)Nc4ccccc4N)cc3)n2)cn1 | 420 nM | 2000 nM | 900 nM | 300 nM | > 50000 nM | >20 | Active | – | – | –
Nc1ccccc1NC(=O)c1ccc(CNc2cncc(-c3cccnc3)n2)cc1 | 110 nM | 1000 nM | 400 nM | 300 nM | 16000 nM | >15 | Active | – | – | –
Nc1ccccc1NC(=O)c1ccc(CNc2ccnc(-c3cccnc3)n2)cc1 | 200 nM | < 1000 nM | 600 nM | 400 nM | 11000 nM | – | Active | – | – | –
Nc1ccccc1NC(=O)c1ccc(/C=C/CNc2nccc(-c3cccnc3)n2)cc1 | 130 nM | – | – | – | – | – | – | – | – | –
Nc1ccccc1NC(=O)c1ccc(CNc2nccc(-c3cccc(OCCN4CCOCC4)c3)n2)cc1 | 140 nM | 1000 nM | 400 nM | 300 nM | 41000 nM | >30 | – | – | – | –
Nc1ccccc1NC(=O)c1ccc(CNc2nccc(-c3nccs3)n2)cc1 | 140 nM | < 1000 nM | 500 nM | – | 14000 nM | >30 | – | – | – | inactive
CN1CCN(c2ccc(-c3ccnc(NCc4ccc(C(=O)Nc5ccccc5N)cc4)n3)cn2)CC1 | 80 nM | – | 200 nM | 200 nM | 5000 nM | >20 | Active | – | inactive | –
CN(C)CCOc1cccc(-c2ccnc(NCc3ccc(C(=O)Nc4ccccc4N)cc3)n2)c1 | 130 nM | < 1000 nM | – | 300 nM | 11000 nM | >30 | – | inactive | – | –
Nc1ccccc1NC(=O)c1ccc(CNc2nccc(-c3cnccn3)n2)cc1 | 190 nM | 1000 nM | 600 nM | 300 nM | 23000 nM | >30 | – | – | – | –
O=C(Nc1ccccc1)c1ccc(CNc2nccc(-c3cccnc3)n2)cc1 | > 25000 nM | – | – | > 50000 nM | – | – | – | – | – | –
Nc1ccccc1NC(=O)c1ccc(CNc2cc(-c3cccnc3)ncn2)cc1 | 70 nM | < 1000 nM | 500 nM | < 50 nM | 42000 nM | >15 | Active | – | – | –
Nc1ccccc1NC(=O)c1ccc(CNc2cccc(-c3cccnc3)n2)cc1 | 180 nM | 1000 nM | 600 nM | 600 nM | > 50000 nM | – | Active | – | – | –

Further lines, with some results ahead:

IC50 (Histone deacetylase 1) | EC50 (T-24) | EC50 (HCT-116 [2]) | IC50 (HCT-116 [3]) | SMILES | IC50 (HMEC [1]) | Ratio IC50 (HMEC [4]) | Activity (HCT-116 [5]) | Activity (HCT-116 [2]) | Activity (T-24) | Activity (HCT-116 [6])
90 nM | 1000 nM | 500 nM | 100 nM | Nc1ccccc1NC(=O)c1ccc(CNc2nccc(-c3ccc(CN4CCOCC4)cc3)n2)cc1 | 27000 nM | >30 | – | – | – | –
70 nM | 3000 nM | 300 nM | 70 nM | Nc1ccccc1NC(=O)c1ccc(CNc2nccc(-c3ccsc3)n2)cc1 | 7000 nM | >30 | – | – | – | –
> 20000 nM | – | – | 25000 nM | Nc1ccccc1C(=O)Nc1ccc(CNc2nccc(-c3cccnc3)n2)cc1 | – | – | – | – | – | –
90 nM | < 1000 nM | 600 nM | 300 nM | Nc1ccccc1NC(=O)c1ccc(CNc2cccc(-c3cccnc3)c2)cc1 | 5000 nM | >15 | Active | – | – | –
170 nM | 1000 nM | 200 nM | 200 nM | Nc1cc(-c2cccnc2)nc(NCc2ccc(C(=O)Nc3ccccc3N)cc2)n1 | 14000 nM | – | – | – | – | –
250 nM | 1000 nM | 1000 nM | 100 nM | COCOC(C)(C)c1ccc(-c2ccnc(NCc3ccc(C(=O)Nc4ccccc4N)cc3)n2)cn1 | 49000 nM | >20 | Active | – | – | –
250 nM | – | 2000 nM | 1000 nM | Nc1ccccc1NC(=O)c1ccc(CNc2nccc(-c3ccc(C(=O)N4CCOCC4)nc3)n2)cc1 | 37000 nM | >20 | Active | – | inactive | –
160 nM | 1000 nM | 700 nM | 400 nM | N#Cc1ccc(-c2ccnc(NCc3ccc(C(=O)Nc4ccccc4N)cc3)n2)cn1 | > 50000 nM | >20 | Active | – | – | –
– | < 1000 nM | 600 nM | 300 nM | Nc1ccccc1NC(=O)c1ccc(CNc2nccc(-c3cccnc3)n2)cc1 [MOCETINOSTAT] | 21000 nM | – | – | – | – | –
90 nM | 1000 nM | 300 nM | 300 nM | CSc1ccc(-c2ccnc(NCc3ccc(C(=O)Nc4ccccc4N)cc3)n2)cn1 | 6000 nM | >20 | Active | – | – | –
> 20000 nM | – | – | 43000 nM | Nc1ccccc1NC(=O)c1cccc(CNc2nccc(-c3cccnc3)n2)c1 | – | – | – | – | – | –
1200 nM | – | – | 2000 nM | Nc1ccccc1NC(=O)/C=C/c1ccc(CNc2nccc(-c3cccnc3)n2)cc1 | – | – | – | – | – | –
2000 nM | – | – | 2000 nM | Nc1ccccc1NC(=O)c1ccc(Nc2nccc(-c3cccnc3)n2)cc1 | – | – | – | – | – | –
50 nM | < 1000 nM | 400 nM | < 50 nM | Nc1ccccc1NC(=O)c1ccc(CNc2nccc(-c3ccc(N4CCOCC4)nc3)n2)cc1 | 5000 nM | >20 | Active | – | – | –
230 nM | 2000 nM | 600 nM | 100 nM | CC(C)(O)c1ccc(-c2ccnc(NCc3ccc(C(=O)Nc4ccccc4N)cc3)n2)cn1 | 38000 nM | >20 | Active | – | – | –
120 nM | < 1000 nM | 100 nM | 90 nM | CN(C)CCOc1ccc(-c2ccnc(NCc3ccc(C(=O)Nc4ccccc4N)cc3)n2)cc1 | 10000 nM | >30 | – | – | – | –
